In series [1] the test system is Mus musculus. As to the kind of experiment: Anticonvulsant activity in ip dosed Mus musculus Swiss albino (mouse) assessed as protection against maximal electroshock-induced seizures after 0.5 hr. The class given is functional. The settings on record: read-out: MED. In general terms: The maximal electroshock test induces tonic seizures with an electrical stimulus.

Series [2] has as its system Mus musculus. As to the kind of experiment: Anticonvulsant activity in Mus musculus Swiss albino (mouse) assessed as protection against maximal electroshock-induced seizures at 300 mg/kg, ip after 4 hr. The class given is functional, organism-based. Also noted: dose 300 mg/kg.
The subject of series [3] is Mus musculus. Put plainly: Anticonvulsant activity in ip dosed Mus musculus Swiss albino (mouse) assessed as protection against subcutaneous pentylenetetrazole-induced seizures after 4 hr. The class given is functional. Particulars: read-out: MED.
Series [4] has as its system Mus musculus. Put plainly: Neurotoxicity in Mus musculus Swiss albino (mouse) assessed as minimal motor impairment at 300 mg/kg, ip after 4 hr by rotorod test. It counts as toxicity, organism-based. Details: dose 300 mg/kg, route intraperitoneal. Particulars: in vivo.
For series [5], the system named is Mus musculus. Put plainly: Neurotoxicity in ip dosed Mus musculus Swiss albino (mouse) assessed as minimal motor impairment after 0.5 hr by rotorod test. The class given is toxicity, organism-based. The settings on record: in vivo. For orientation: The rotarod test checks motor coordination on a turning rod.
Series [6] has as its system Mus musculus. Put plainly: Anticonvulsant activity in ip dosed Mus musculus Swiss albino (mouse) assessed as protection against maximal electroshock-induced seizures after 4 hr. The class given is functional. The settings on record: read-out: MED.
Series [7] has as its system Mus musculus. Put plainly: Anticonvulsant activity in ip dosed Mus musculus Swiss albino (mouse) assessed as protection against subcutaneous pentylenetetrazole-induced seizures after 0.5 hr. It counts as functional. The settings on record: read-out: MED.
Series [8] has as its system Rattus norvegicus. Put plainly: Anticonvulsant activity in Rattus norvegicus Wistar (rat) assessed as increase in GABA level in mid brain region measured per 100 mg of tissue at 100 mg/kg, ip after 2 hr (reference value: 44.38 +/- 0.219 ug). It counts as functional. The settings on record: route intraperitoneal.
The subject of series [9] is Rattus norvegicus. Put plainly: Anticonvulsant activity in Rattus norvegicus Wistar (rat) assessed as increase in GABA level in cerebellum region measured per 100 mg of tissue at 100 mg/kg, ip after 2 hr (reference value: 25.27 +/- 0.57 ug). It counts as functional. Particulars: route intraperitoneal.
Series [10] relates to Rattus norvegicus. Put plainly: Anticonvulsant activity in Rattus norvegicus Wistar (rat) assessed as increase in GABA level in medulla oblongata region measured per 100 mg of tissue at 100 mg/kg, ip after 2 hr (reference value: 40.57 +/- 0.2 ug). It counts as functional. Particulars: route intraperitoneal.
Series [11] can be described thus: Lipophilicity, log P of the compound. It counts as physicochemical. Particulars: octanol/water.
The test system of series [12] is Rattus norvegicus. Put plainly: Anticonvulsant activity in Rattus norvegicus Wistar (rat) assessed as increase in GABA level in olfactory lob region measured per 100 mg of tissue at 100 mg/kg, ip after 2 hr (reference value: 13.22 +/- 0.03 ug). It counts as functional. The settings on record: route intraperitoneal.
For series [13], the system named is Mus musculus. Put plainly: Neurotoxicity in Mus musculus Swiss albino (mouse) assessed as potentiation of ethanol-mediated effect at 100 to 300 mg/kg, ip administered 1 hr followed by ethanol challenge. The class given is toxicity, organism-based. Details: dose 100-300 mg/kg, route intraperitoneal. Particulars: in vivo.
For series [14], the system named is Mus musculus. Put plainly: Anticonvulsant activity in Mus musculus Swiss albino (mouse) assessed as protection against subcutaneous pentylenetetrazole-induced seizures at 300 mg/kg, ip after 0.5 hr. The class given is functional, organism-based. Also noted: dose 300 mg/kg.
The test system of series [15] is Mus musculus. As to the kind of experiment: Neurotoxicity in ip dosed Mus musculus Swiss albino (mouse) assessed as minimal motor impairment after 4 hr by rotorod test. The class given is toxicity, organism-based. Particulars: in vivo.
The subject of series [16] is Mus musculus. As to the kind of experiment: Anticonvulsant activity in Mus musculus Swiss albino (mouse) assessed as protection against subcutaneous pentylenetetrazole-induced seizures at 300 mg/kg, ip after 4 hr. The class given is functional, organism-based. Details: dose 300 mg/kg.
Series [17] has as its system Mus musculus. Put plainly: Neurotoxicity in Mus musculus Swiss albino (mouse) assessed as minimal motor impairment at 300 mg/kg, ip after 0.5 hr by rotorod test. It counts as toxicity, organism-based. Details: dose 300 mg/kg, route intraperitoneal. The settings on record: in vivo.

Calls of active or inactive are those of the source. No cut-off for these calls is given here.

In the case of `COc1cc2c(cc1OC)C(=O)C(CC1CCN(C(=S)Nc3cccc(Cl)c3)CC1)C2` (stereo not drawn), in the series with Mus musculus [1], the minimal effective dose turned out to be 300 mg/kg. Moreover, in the series on Mus musculus [2], the result was inactive.
In the case of `COc1cc2c(cc1OC)C(=O)C(CC1CCN(C(=S)Nc3ccccc3)CC1)C2` (stereo not drawn), the minimal effective dose in the series on Mus musculus [3] was found to be 300 mg/kg; in the series with Mus musculus [1], 100 mg/kg; in the series with Mus musculus [6] it was 300 mg/kg; in the series on Mus musculus [7] it was 100 mg/kg. Also, the Activity result in the series with Mus musculus [4] is “Non-toxic”. Moreover, in the series with Mus musculus [5], the MTC was determined as 300 mg/kg.
The logP is the decadic logarithm of the partition coefficient of the neutral form, usually between octanol and water. A higher logP goes with a more lipophilic compound. Turning to `COc1cc2c(cc1OC)C(=O)C(CC1CCN(C(=S)Nc3ccc(C)cc3)CC1)C2` (stereo not drawn), the Activity with Rattus norvegicus [8] is 61.05 µg; in the series with Rattus norvegicus [9] it was 31.83 µg; with Rattus norvegicus [10] it was 49.82 µg; in the series with Mus musculus [4], “Non-toxic”; with Rattus norvegicus [12], 15.62 µg. The minimal effective dose with Mus musculus [3] came out at 300 mg/kg; in the series on Mus musculus [1], 30 mg/kg; in the series with Mus musculus [6], 100 mg/kg; with Mus musculus [7] it was 100 mg/kg. The MTC with Mus musculus [5] worked out at 300 mg/kg. The same compound yielded a logP in series [11] of 4.58.
For `CCCNC(=S)N1CCC(CC2Cc3cc(OC)c(OC)cc3C2=O)CC1` (stereo not drawn), the minimal effective dose in the series with Mus musculus [3] came out at 300 mg/kg; with Mus musculus [1], 100 mg/kg; in the series on Mus musculus [6], 300 mg/kg. Further, the Activity entry in the series with Mus musculus [13] and in the series with Mus musculus [4] was “Non-toxic” each time. The MTC in the series with Mus musculus [5] turned out to be 300 mg/kg. In addition, the result in the series with Mus musculus [14] was inactive.
For the compound `COc1cc2c(cc1OC)C(=O)C(CC1CCN(C(=S)Nc3ccccc3C)CC1)C2` (stereo not drawn), the MTC with Mus musculus [15] is 300 mg/kg; in the series on Mus musculus [5], 100 mg/kg. Besides, the Activity result in the series on Mus musculus [13] is on record as “Non-toxic”. Also, the minimal effective dose in the series with Mus musculus [1] was found to be 100 mg/kg; with Mus musculus [7] it was 300 mg/kg. Besides, the outcome in the series on Mus musculus [16] and in the series on Mus musculus [2] was inactive.
For `COc1cc2c(cc1OC)C(=O)C(CC1CCN(C(=S)Nc3cccc([N+](=O)[O-])c3)CC1)C2` (stereo not drawn), in the series with Mus musculus [1], the minimal effective dose worked out at 300 mg/kg. The outcome in the series on Mus musculus [2] was inactive.
On to `COc1cc2c(cc1OC)C(=O)C(CC1CCN(C(=S)Nc3ccccc3[N+](=O)[O-])CC1)C2` (stereo not drawn), for which the MTC with Mus musculus [15] came out at 300 mg/kg. Also, the minimal effective dose was determined as 100 mg/kg in the series with Mus musculus [1] and 300 mg/kg in the series with Mus musculus [6]. Further, the result in the series on Mus musculus [16] and with Mus musculus [14] was inactive. For the same compound, the Activity entry in the series with Mus musculus [17] is listed as “Non-toxic”.
As for `O=C1NC(=O)C(c2ccccc2)(c2ccccc2)N1` [PHENYTOIN], the MTC with Mus musculus [15] and in the series on Mus musculus [5] was 100 mg/kg throughout. In addition, the minimal effective dose in the series with Mus musculus [1] and with Mus musculus [6] was 30 mg/kg in each case. For the same compound, the result in the series with Mus musculus [16] and with Mus musculus [14] was inactive.
As to `COc1cc2c(cc1OC)C(=O)C(CC1CCN(C(=S)Nc3ccccc3Cl)CC1)C2` (stereo not drawn), the minimal effective dose in the series with Mus musculus [3] worked out at 300 mg/kg; in the series with Mus musculus [1] it was 100 mg/kg; in the series with Mus musculus [6] it was 300 mg/kg; with Mus musculus [7], 300 mg/kg. Further, the figures for the Activity entry in the series on Mus musculus [13] and in the series on Mus musculus [4] were “Toxic” and “Non-toxic”, respectively. Further, the MTC in the series on Mus musculus [5] is 300 mg/kg.
As to `COc1cc2c(cc1OC)C(=O)C(CC1CCN(C(=S)Nc3ccc([N+](=O)[O-])cc3)CC1)C2` (stereo not drawn), the Activity with Rattus norvegicus [8] is 59.33 µg; in the series with Rattus norvegicus [9], 28.06 µg; in the series with Rattus norvegicus [10], 35.13 µg; with Mus musculus [13], “Non-toxic”; with Mus musculus [4], “Non-toxic”; with Rattus norvegicus [12], 15.71 µg. For the same compound, the minimal effective dose was 30 mg/kg in the series with Mus musculus [1], 300 mg/kg in the series with Mus musculus [6] and 100 mg/kg in the series with Mus musculus [7]. The MTC with Mus musculus [5] was 300 mg/kg. Moreover, in the series on Mus musculus [16], the outcome was inactive. Also, the log partition coefficient (logP) in [11] stood at 4.58.
Regarding `COc1cc2c(cc1OC)C(=O)C(CC1CCN(C(=S)Nc3ccc(Cl)cc3)CC1)C2` (stereo not drawn), the Activity in the series on Rattus norvegicus [8] is 44.81 µg; with Rattus norvegicus [9], 27.66 µg; in the series on Rattus norvegicus [10], 40.75 µg; with Mus musculus [13], “Non-toxic”; in the series with Rattus norvegicus [12] it was 13.47 µg. Further, the MTC in the series with Mus musculus [15] came to 300 mg/kg; with Mus musculus [5] it was 100 mg/kg. Moreover, the minimal effective dose in the series on Mus musculus [3] turned out to be 300 mg/kg; with Mus musculus [1], 30 mg/kg; in the series with Mus musculus [6], 100 mg/kg; in the series with Mus musculus [7], 100 mg/kg. The log partition coefficient (logP) in series [11] is 5.11.
Take `CCCCNC(=S)N1CCC(CC2Cc3cc(OC)c(OC)cc3C2=O)CC1` (stereo not drawn): the MTC in the series with Mus musculus [15] and with Mus musculus [5] was 300 mg/kg throughout. Moreover, the minimal effective dose in the series on Mus musculus [3] amounted to 300 mg/kg; in the series on Mus musculus [1], 100 mg/kg; in the series with Mus musculus [6] it was 100 mg/kg; in the series with Mus musculus [7], 100 mg/kg. For the same compound, the Activity result in the series on Mus musculus [13] is “Non-toxic”.
As for `NC(=O)N1c2ccccc2C=Cc2ccccc21` [CARBAMAZEPINE], the minimal effective dose with Mus musculus [3] amounted to 100 mg/kg; in the series on Mus musculus [1], 30 mg/kg; in the series with Mus musculus [6], 100 mg/kg; in the series with Mus musculus [7], 300 mg/kg. Also, the Activity entry in the series with Mus musculus [4] is “Non-toxic”. Also, the MTC in the series on Mus musculus [5] is 300 mg/kg.
For the compound `COc1cc2c(cc1OC)C(=O)C(CC1CCN(C(=S)Nc3cccc(C)c3)CC1)C2` (stereo not drawn), in the series on Mus musculus [1], the minimal effective dose was 300 mg/kg. Also, in the series on Mus musculus [2], the result was inactive.
